Data as given in PMC11606603, “The membrane domains of mammalian adenylyl cyclases are lipid receptors” (eLife, 2024).
Where “and” joins values, the source holds several entries; their conditions need not be identical. Equal entries are not always repeated.

Target: T1, HEK-mAC1 (Homo sapiens, UniProt Q08828)
T1 construct: Human mAC genes were from GenScript and fitted with a C-terminal FLAG-tag; FLAG (C); expressed in transfected cells; host or cells: HEK293, permanently transfected
Experiment: cAMP accumulation assay, isoproterenol-stimulated HEK-mAC1 cells
Format: cell-based
Settings: for cAMP level (%); 100%= 10µM Isoproterenol stimulation: single experiments

T1 sequence (Q08828 whole entry): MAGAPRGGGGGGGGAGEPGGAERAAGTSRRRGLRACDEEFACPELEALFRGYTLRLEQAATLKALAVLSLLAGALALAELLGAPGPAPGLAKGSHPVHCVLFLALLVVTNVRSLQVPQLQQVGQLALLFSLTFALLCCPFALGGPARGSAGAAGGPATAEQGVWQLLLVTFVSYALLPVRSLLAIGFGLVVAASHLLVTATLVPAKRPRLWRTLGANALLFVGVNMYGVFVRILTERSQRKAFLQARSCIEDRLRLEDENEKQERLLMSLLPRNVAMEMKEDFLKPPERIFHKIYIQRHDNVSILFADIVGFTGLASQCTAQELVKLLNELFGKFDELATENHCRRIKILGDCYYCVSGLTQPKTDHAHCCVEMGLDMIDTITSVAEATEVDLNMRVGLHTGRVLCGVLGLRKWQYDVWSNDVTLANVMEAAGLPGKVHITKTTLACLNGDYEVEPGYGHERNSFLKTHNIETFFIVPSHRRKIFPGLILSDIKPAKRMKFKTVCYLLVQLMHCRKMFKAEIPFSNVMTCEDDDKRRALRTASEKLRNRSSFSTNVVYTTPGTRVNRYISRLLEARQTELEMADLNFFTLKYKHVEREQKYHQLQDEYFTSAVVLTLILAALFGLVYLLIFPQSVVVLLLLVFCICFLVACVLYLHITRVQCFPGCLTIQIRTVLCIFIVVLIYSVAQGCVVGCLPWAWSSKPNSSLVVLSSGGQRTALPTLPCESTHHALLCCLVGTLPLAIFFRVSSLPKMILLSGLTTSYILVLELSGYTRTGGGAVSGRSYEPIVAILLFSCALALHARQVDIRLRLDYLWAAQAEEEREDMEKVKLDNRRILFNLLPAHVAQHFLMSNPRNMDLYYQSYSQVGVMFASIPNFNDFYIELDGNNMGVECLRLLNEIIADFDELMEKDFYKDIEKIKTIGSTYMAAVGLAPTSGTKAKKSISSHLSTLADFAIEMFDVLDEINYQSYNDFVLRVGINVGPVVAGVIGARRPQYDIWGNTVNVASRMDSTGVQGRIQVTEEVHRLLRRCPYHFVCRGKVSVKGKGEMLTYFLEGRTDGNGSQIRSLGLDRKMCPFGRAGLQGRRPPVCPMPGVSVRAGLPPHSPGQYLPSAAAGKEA

**Q.** With `CCCCC/C=C\C/C=C\C/C=C\C/C=C\CCCC(=O)O` [Arachidonic acid, Arachidonic ((5Z,8Z,11Z,14Z)-eicosatetraenoic) acid] as the compound, how does the IC50 (10 µM isoproterenol, 0.5 mM IBMX) read?
**A.** 0.25 nM

**Q.** And the “cAMP level (%); 100%= 10µM Isoproterenol stimulation” value (shortened to “cAMP level (%)”) (HEK-mAC1, 1e-5 µM)?
**A.** 113% and 69%

**Q.** What about the “cAMP level (%)” value (HEK-mAC1, 0.0001 µM) of the same compound?
**A.** 98% and 73%

**Q.** What about the “cAMP level (%)” value (HEK-mAC1, 0.001 µM) of the same compound?
**A.** 93% and 69%

**Q.** What about the “cAMP level (%)” value (HEK-mAC1, 0.003 µM) of the same compound?
**A.** 61%

**Q.** And the “cAMP level (%)” value (HEK-mAC1, 0.006 µM)?
**A.** 59%

**Q.** And the “cAMP level (%)” value (HEK-mAC1, 0.01 µM)?
**A.** 62% and 55% and 52% and 91% and 64%

**Q.** What about the “cAMP level (%)” value (HEK-mAC1, 0.1 µM) of the same compound?
**A.** 77% and 55% and 49% and 97% and 63%

**Q.** And the “cAMP level (%)” value (HEK-mAC1, 0.6 µM)?
**A.** 47%

**Q.** What about the “cAMP level (%)” value (HEK-mAC1, 60 µM) of the same compound?
**A.** 72% and 67% and 51% and 53% and 65%

**Q.** What about the “cAMP level (%)” value (HEK-mAC1, 100 µM) of the same compound?
**A.** 76% and 47% and 57% and 42% and 44% and 60% and 81%
